Values of other authors, collected in patent US20060269582A1, “Arthropod repellent comprising extracts and/or parts of the plant vitex agnus-castus” (Alpha-Biocare GmbH, priority 2002, published 2006).

Legend:
ticks and mites = conditions: state of the art
ticks = conditions: state of the art

Compound | efficiency / activity against ticks and mites (ticks and mites) | activity against ticks (ticks) | duration of protection against ticks (ticks)
CC1=C(C=O)C(CC=O)CC1 (stereo not shown) [2-(2-formyl-3-methyl-cyclopent-2-enyl)acetaldehyde] | low or even not there |  | 
CCN(CC)C(=O)c1cccc(C)c1 [DEET, N,N-diethyl-m-toluamide] | low efficiency |  | 
CCC(C)OC(=O)N1CCCCC1CCO (stereo not shown) [Bayrepel] |  | poor | about two
